According to PubChem BioAssay AID256 (DTP/NCI, 2004):
Values joined by “and” are separate entries in the source; they are usually repeats but may differ in a detail not shown here. Equal entries are not always repeated. Toxic doses and inconclusive results are not listed. Rule for the calls: active = survival T/C of 150% or more; inactive = T/C below 125% in these data.

Test system: CD2F1 mice, L1210 leukemia ip, survival T/C
Experiment: NCI In Vivo Anticancer Drug Screen. Data for tumor model L1210 Leukemia (intraperitoneal) in CD2F1 (CDF1) mice
Settings: higher = longer survival
Method in brief: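 Transplantable tumor in mice; compound-treated vs vehicle-treated groups. Read-out = treated/control ratio of the measured endpoint.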

[1] = endpoint: mean survival time, dose: 100.0 mg/kg/injection, schedule: Q01DX001 (ip), vehicle: saline
[2] = endpoint: mean survival time, dose: 100.0 mg/kg/injection, schedule: Q04DX003 (ip), vehicle: saline
[3] = endpoint: mean survival time, dose: 200.0 mg/kg/injection, schedule: Q01DX001 (ip), vehicle: saline
[4] = endpoint: mean survival time, dose: 200.0 mg/kg/injection, schedule: Q04DX003 (ip), vehicle: saline
[5] = endpoint: mean survival time, dose: 12.5 mg/kg/injection, schedule: Q01DX005 (ip), vehicle: distilled water + Tween-80
[6] = endpoint: mean survival time, dose: 25.0 mg/kg/injection, schedule: Q01DX005 (ip), vehicle: distilled water + Tween-80
[7] = endpoint: mean survival time, dose: 50.0 mg/kg/injection, schedule: Q01DX005 (ip), vehicle: distilled water + Tween-80
[8] = endpoint: mean survival time, dose: 100.0 mg/kg/injection, schedule: Q01DX005 (ip), vehicle: distilled water + Tween-80
[9] = endpoint: mean survival time, dose: 12.5 mg/kg/injection, schedule: Q04DX003 (ip), vehicle: saline
[10] = endpoint: mean survival time, dose: 25.0 mg/kg/injection, schedule: Q04DX003 (ip), vehicle: saline
[11] = endpoint: mean survival time, dose: 50.0 mg/kg/injection, schedule: Q04DX003 (ip), vehicle: saline
[12] = endpoint: mean survival time, dose: 50.0 mg/kg/injection, schedule: Q04DX003 (ip), vehicle: saline with Tween-80
[13] = endpoint: mean survival time, dose: 100.0 mg/kg/injection, schedule: Q04DX003 (ip), vehicle: saline with Tween-80
[14] = endpoint: mean survival time, dose: 200.0 mg/kg/injection, schedule: Q04DX003 (ip), vehicle: saline with Tween-80
[15] = endpoint: mean survival time, dose: 50.0 mg/kg/injection, schedule: Q01DX009 (ip), vehicle: saline with Tween-80
[16] = endpoint: mean survival time, dose: 100.0 mg/kg/injection, schedule: Q01DX009 (ip), vehicle: saline with Tween-80
[17] = endpoint: mean survival time, dose: 12.5 mg/kg/injection, schedule: Q04DX003 (ip), vehicle: saline with Tween-80
[18] = endpoint: mean survival time, dose: 25.0 mg/kg/injection, schedule: Q04DX003 (ip), vehicle: saline with Tween-80
[19] = endpoint: mean survival time, dose: 200.0 mg/kg/injection, schedule: Q01DX009 (ip), vehicle: saline with Tween-80
[20] = endpoint: mean survival time, dose: 400.0 mg/kg/injection, schedule: Q01DX009 (ip), vehicle: saline with Tween-80

Measured: T/C

C/C(=N\O)c1ccc2ccc3ccccc3c2c1
inactive: [1] 100 % of control | [2] 102 % of control | [3] 95 % of control | [4] 100 % of control | endpoint: mean survival time, dose: 400.0 mg/kg/injection, schedule: Q01DX001 (ip), vehicle: saline 100 % of control | endpoint: mean survival time, dose: 400.0 mg/kg/injection, schedule: Q04DX003 (ip), vehicle: saline 97 % of control

COP1(=O)OCC(C(C)(C)C)CO1 (stereo not given)
inactive: endpoint: mean survival time, dose: 12.5 mg/kg/injection, schedule: Q04DX002 (ip), vehicle: saline 103 % of control | endpoint: mean survival time, dose: 25.0 mg/kg/injection, schedule: Q04DX002 (ip), vehicle: saline 88 % of control

N#Cc1cn(C2OC(CO)C(O)C2O)c2ncn3ncnc3c12 (stereo not given)
inactive: endpoint: mean survival time, dose: 3.13 mg/kg/injection, schedule: Q01DX005 (ip), vehicle: water 102 % of control | endpoint: mean survival time, dose: 6.25 mg/kg/injection, schedule: Q01DX005 (ip), vehicle: water 102 % of control | [5] 122 % of control | endpoint: mean survival time, dose: 12.5 mg/kg/injection, schedule: Q01DX005 (ip), vehicle: water 112 % of control | [6] 112 % of control | endpoint: mean survival time, dose: 25.0 mg/kg/injection, schedule: Q01DX005 (ip), vehicle: water 120 % of control | [7] 116 % of control | [8] 106 % of control

COC(=O)c1ccccc1I
inactive: endpoint: mean survival time, dose: 100.0 mg/kg/injection, schedule: Q04DX002 (ip), vehicle: saline with Tween-80 107 % of control | endpoint: mean survival time, dose: 200.0 mg/kg/injection, schedule: Q04DX002 (ip), vehicle: saline with Tween-80 96 % of control | endpoint: mean survival time, dose: 400.0 mg/kg/injection, schedule: Q04DX002 (ip), vehicle: saline with Tween-80 107 % of control

Cc1cc(=O)[nH]c(=S)[nH]1.[Pd]
inactive: endpoint: mean survival time, dose: 3.12 mg/kg/injection, schedule: Q04DX003 (ip), vehicle: saline 103 % of control | endpoint: mean survival time, dose: 6.25 mg/kg/injection, schedule: Q04DX003 (ip), vehicle: saline 108 % of control | [9] 105 % of control | [10] 100 % of control | [11] 102 % of control | [2] 102 % of control | [4] 100 % of control

CC1(C(Cl)(Cl)Cl)C=CC(=O)C=C1
inactive: [12] 101 % of control | [13] 101 % of control | [14] 97 % of control

CCCCCCCCCCCCOC(=O)C[n+]1cccc(C(=O)Nc2ccc(Cl)cc2)c1
inactive: endpoint: mean survival time, dose: 25.0 mg/kg/injection, schedule: Q01DX009 (ip), vehicle: saline with Tween-80 101 % of control | [15] 96 % of control | [13] 103 % of control

CCC(C)C(CO)c1ccccc1 (stereo not given)
inactive: [15] 98 % of control | [16] 88 % of control

CC([NH-])CC[NH-].[I][Pt+2][I] (stereo not given)
inactive: [17] 118 % of control | [18] 124 % of control | [12] 109 % of control

COc1ccc(/C=C/C(=O)c2ccc(Cl)cc2)c(OC)c1
inactive: endpoint: mean survival time, dose: 100.0 mg/kg/injection, schedule: Q04DX003 (ip), vehicle: other 101 % of control | endpoint: mean survival time, dose: 200.0 mg/kg/injection, schedule: Q04DX003 (ip), vehicle: other 95 % of control | endpoint: mean survival time, dose: 400.0 mg/kg/injection, schedule: Q04DX003 (ip), vehicle: other 93 % of control

Nc1nc2c(ncn2C2OC(CO)C(O)C2O)c(=O)[n]1[Hg][c]1ccccc1 (stereo not given)
inactive: endpoint: median survival time, dose: 0.79 mg/kg/injection, schedule: Q01DX005 (ip), vehicle: saline 103 % of control | endpoint: median survival time, dose: 1.56 mg/kg/injection, schedule: Q01DX005 (ip), vehicle: saline 100 % of control | endpoint: median survival time, dose: 3.12 mg/kg/injection, schedule: Q01DX005 (ip), vehicle: saline 100 % of control | endpoint: median survival time, dose: 6.25 mg/kg/injection, schedule: Q01DX005 (ip), vehicle: saline 100 % of control | endpoint: median survival time, dose: 12.5 mg/kg/injection, schedule: Q01DX005 (ip), vehicle: saline 108 % of control

O=C1CSC(=S)N1/N=C/c1ccc2c(c1)OCO2
inactive: endpoint: mean survival time, dose: 75.0 mg/kg/injection, schedule: Q01DX001 (ip), vehicle: other 94 % of control | endpoint: mean survival time, dose: 150.0 mg/kg/injection, schedule: Q01DX001 (ip), vehicle: other 93 % of control | endpoint: mean survival time, dose: 300.0 mg/kg/injection, schedule: Q01DX001 (ip), vehicle: other 97 % of control

O=C1NC(=O)C(c2ccccc2)(c2ccc(O)cc2)N1 (stereo not given)
inactive: [16] 105 % of control | endpoint: mean survival time, dose: 100.0 mg/kg/injection, schedule: Q04DX003 (ip), vehicle: saline sonified 95 % of control | [19] 95 % of control | endpoint: mean survival time, dose: 200.0 mg/kg/injection, schedule: Q04DX003 (ip), vehicle: saline sonified 93 % of control | [20] 95 % of control | endpoint: mean survival time, dose: 400.0 mg/kg/injection, schedule: Q04DX003 (ip), vehicle: saline sonified 93 % of control

N#Cc1ncc(Cl)cc1[N+](=O)[O-]
inactive: [17] 101 % of control | [18] 101 % of control | [12] 101 % of control

CS(=O)(=O)OCC(=O)C(=O)COS(C)(=O)=O
inactive: endpoint: mean survival time, dose: 25.0 mg/kg/injection, schedule: Q01DX001 (ip), vehicle: saline 91 % of control | endpoint: mean survival time, dose: 50.0 mg/kg/injection, schedule: Q01DX001 (ip), vehicle: saline 94 % of control | [1] 96 % of control and 103 % of control

COc1ccc(C(C)c2cc3c(cc2OC)OCO3)cc1 (stereo not given)
inactive: endpoint: median survival time, dose: 25.0 mg/kg/injection, schedule: Q01DX009 (ip), vehicle: saline with Tween-80 101 % of control | endpoint: median survival time, dose: 50.0 mg/kg/injection, schedule: Q01DX009 (ip), vehicle: saline with Tween-80 107 % of control | endpoint: median survival time, dose: 100.0 mg/kg/injection, schedule: Q01DX009 (ip), vehicle: saline with Tween-80 113 % of control | endpoint: median survival time, dose: 200.0 mg/kg/injection, schedule: Q01DX009 (ip), vehicle: saline with Tween-80 119 % of control

Cc1cc(C)c(C(=O)c2ccccc2-c2ccccc2C(=O)c2c(C)cc(C)cc2C)c(C)c1
inactive: [16] 86 % of control | [13] 96 % of control | [19] 89 % of control | [14] 100 % of control | [20] 91 % of control | endpoint: mean survival time, dose: 400.0 mg/kg/injection, schedule: Q04DX003 (ip), vehicle: saline with Tween-80 96 % of control

COc1ccc2c(c1)C1CCCC(=O)C1N2 (stereo not given)
inactive: [16] 97 % of control | [19] 91 % of control | [20] 91 % of control

CN(C)[C@@H]1C(=O)C(C(=O)NCNC(CO)(CO)CO)=C(O)[C@@]2(O)C(=O)C3=C(O)c4c(O)cccc4[C@@](C)(O)[C@H]3C[C@@H]12
inactive: endpoint: mean survival time, dose: 200.0 mg/kg/injection, schedule: Q01DX009 (ip), vehicle: saline 93 % of control | endpoint: mean survival time, dose: 264.0 mg/kg/injection, schedule: Q01DX009 (ip), vehicle: acetone 97 % of control | endpoint: mean survival time, dose: 300.0 mg/kg/injection, schedule: Q01DX009 (ip), vehicle: saline 98 % of control | endpoint: mean survival time, dose: 400.0 mg/kg/injection, schedule: Q01DX009 (ip), vehicle: acetone 92 % of control

N#CC1(C#N)OC(C#N)(C#N)C2C1C=CC1C2C1(C#N)C#N (stereo not given)
inactive: endpoint: mean survival time, dose: 6.25 mg/kg/injection, schedule: Q01DX001 (ip), vehicle: saline with Tween-80 108 % of control | endpoint: mean survival time, dose: 12.5 mg/kg/injection, schedule: Q01DX001 (ip), vehicle: saline with Tween-80 97 % of control | endpoint: mean survival time, dose: 25.0 mg/kg/injection, schedule: Q01DX001 (ip), vehicle: saline with Tween-80 97 % of control

O=C(O)C(O)CBr (stereo not given)
inactive: [9] 101 % of control | [10] 106 % of control | [11] 106 % of control

CC(=O)OC12C=C(C)C(C3C(=O)OC(=O)C31)C(C)(C)C2 (stereo not given)
inactive: [1] 103 % of control | [3] 101 % of control

CC(C)NCCCC(=O)O
inactive: endpoint: mean survival time, dose: 12.5 mg/kg/injection, schedule: Q01DX009 (ip), vehicle: water 96 % of control | endpoint: mean survival time, dose: 25.0 mg/kg/injection, schedule: Q01DX009 (ip), vehicle: water 98 % of control | endpoint: mean survival time, dose: 50.0 mg/kg/injection, schedule: Q01DX009 (ip), vehicle: water 90 % of control | endpoint: mean survival time, dose: 100.0 mg/kg/injection, schedule: Q01DX009 (ip), vehicle: water 98 % of control | endpoint: mean survival time, dose: 200.0 mg/kg/injection, schedule: Q01DX009 (ip), vehicle: water 95 % of control

OCC1OC(n2cnc3c(Nc4ccccc4)ncnc32)C(O)C1O (stereo not given)
inactive: [5] 102 % of control | [6] 100 % of control | [7] 100 % of control | [8] 94 % of control | endpoint: mean survival time, dose: 200.0 mg/kg/injection, schedule: Q01DX005 (ip), vehicle: distilled water + Tween-80 98 % of control
